Reference: patent US20190322676A1, “CERAMIDE GALACTOSYLTRANSFERASE INHIBITORS FOR THE TREATMENT OF DISEASE” (BioMarin Pharmaceutical Inc., priority 2016, published 2019)
Counter-ions that a name gives are not always drawn.

Target: T1, human CGT (ceramide galactosyltransferase), CHO/CGT lysate (Homo sapiens, UniProt Q16880)
T1 construct: Full-length human CGT cDNA was cloned into the BamH1/Xho1 site of pcDNA3.1 (+); expressed in transfected cells; host or cells: Chinese hamster ovary (CHO) cells; lysate prepared with M-PER
T1 sequence (Q16880 21-541): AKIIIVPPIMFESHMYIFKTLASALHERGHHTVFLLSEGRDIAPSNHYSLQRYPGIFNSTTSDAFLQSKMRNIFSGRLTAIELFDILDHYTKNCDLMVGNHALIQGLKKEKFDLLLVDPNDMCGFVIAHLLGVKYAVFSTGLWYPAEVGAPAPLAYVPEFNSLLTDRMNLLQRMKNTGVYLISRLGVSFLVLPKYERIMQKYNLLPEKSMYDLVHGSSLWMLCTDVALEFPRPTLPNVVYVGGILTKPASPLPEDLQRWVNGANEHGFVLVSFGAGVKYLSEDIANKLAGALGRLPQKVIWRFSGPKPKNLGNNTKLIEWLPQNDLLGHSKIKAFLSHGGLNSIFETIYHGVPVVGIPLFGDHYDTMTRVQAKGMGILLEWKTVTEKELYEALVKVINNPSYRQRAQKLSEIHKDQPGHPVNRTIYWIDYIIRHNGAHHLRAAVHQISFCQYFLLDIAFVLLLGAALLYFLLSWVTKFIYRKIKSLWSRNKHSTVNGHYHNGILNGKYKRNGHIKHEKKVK
Assay: CGT enzyme assay, RapidFire/MS/MS readout (Table 1 ranges with one asterisk *)
Type: biochemical
Details: RapidFire method (range with one asterisk *)
Method in brief: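 Lysate (4 μg) of CHO cells transfected with full-length human CGT incubated 1 h at 37 °C with compound (0.001–50 μM) in pH 7.2 HEPES buffer with 10 μM C6-NBD-dihydro-ceramide, 17.5 μM UDP-galactose, Mg2+/Mn2+, CHAPS, BSA, 0.5% DMSO; ** set also contained 0.01% Tween 80. Product quantified by RapidFire/MS/MS, normalized to internal standard; IC50 from sigmoidal variable-slope fits.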

SMILES	IC50
NC1CC2CCC(C1)N2C(=O)[C@@H](NS(=O)(=O)c1ccc2cc(OC3CCCC3)ccc2c1)C(F)(F)c1ccc2cc(Br)ccc2c1 (stereo partly drawn) [Compound 38-1, N-((2R)-3-(3-amino-8-azabicyclo[3.2.1]octan-8-yl)-1-(6-bromonaphthalen-2-yl)-1,1-difluoro-3-oxopropan-2-yl)-6-(cyclopentyloxy) naphthalene-2-sulfonamide trifluoroacetate]	1 to 10 µM
NC1CC2CCC(C1)N2C(=O)[C@H](NS(=O)(=O)c1ccc2cc(OC3CCCC3)ccc2c1)C(F)(F)c1ccc(Oc2ccccc2)cc1 (stereo partly drawn) [Compound 86-2, N-((2S)-3-(3-amino-8-azabicyclo[3.2.1]octan-8-yl)-1,1-difluoro-3-oxo-1-(4-phenoxyphenyl)propan-2-yl)-6-(cyclopentyloxy)naphthalene-2-sulfonamide trifluoroacetate]	1 to 10 µM
NC1CC2CCC(C1)N2C(=O)[C@@H](NS(=O)(=O)c1ccc(OCC2CCCCC2)cc1)C(F)(F)c1ccc(Oc2ccccc2)cc1 (stereo partly drawn) [Compound 84-1, N-((2R)-3-(3-amino-8-azabicyclo[3.2.1]octan-8-yl)-1,1-difluoro-3-oxo-1-(4-phenoxyphenyl)propan-2-yl)-4-(cyclohexylmethoxy)benzenesulfonamide]	1 to 10 µM
CN([C@@H](C(=O)N1C2CCC1CC(N)C2)C(F)(F)c1ccc(OCCN2CCOCC2)cc1)S(=O)(=O)c1ccc2cc(OC3CCCC3)ccc2c1 (stereo partly drawn) [Compound 115-2, N-((2S)-3-(3-amino-8-azabicyclo[3.2.1]octan-8-yl)-1,1-difluoro-1-(4-(2-morpholinoethoxy)phenyl)-3-oxopropan-2-yl)-6-(cyclopentyloxy)-N-methylnaphthalene-2-sulfonamide]	10 to 30 µM
NC1CCN(C(=O)[C@H](NS(=O)(=O)c2ccc3cc(OC4CCCC4)ccc3c2)C(F)(F)c2ccc(C(F)(F)F)cc2)CC1 [Compound 71-2, (S)—N-(3-(4-aminopiperidin-1-yl)-1,1-difluoro-3-oxo-1-(4-(trifluoromethyl)phenyl)propan-2-yl)-6-(cyclopentyloxy)naphthalene-2-sulfonamide]	1 to 10 µM
NC1CC2CCC(C1)N2C(=O)[C@H](NS(=O)(=O)c1ccc(OCC2CCCCC2)cc1)C(F)(F)c1ccc(-c2ccc(Cl)s2)cc1 (stereo partly drawn) [Compound 104-2, N-((2S)-3-(3-amino-8-azabicyclo[3.2.1]octan-8-yl)-1-(4-(5-chlorothiophen-2-yl)phenyl)-1,1-difluoro-3-oxopropan-2-yl)-4-(cyclohexylmethoxy)benzenesulfonamide]	10 to 30 µM
CCCCOc1ccc(C(F)(F)[C@@H](NS(=O)(=O)c2ccc3cc(OC4CCCC4)ccc3c2)C(=O)N2CCC(N)CC2)cc1 [Compound 80-2, (S)—N-(3-(4-aminopiperidin-1-yl)-1-(4-butoxyphenyl)-1,1-difluoro-3-oxopropan-2-yl)-6-(cyclopentyloxy)naphthalene-2-sulfonamide]	1 to 10 µM
NC1CC2CCC(C1)N2C(=O)[C@H](NS(=O)(=O)c1ccc2c(cnn2CC2CCCC2)c1)C(F)(F)c1ccc(Br)cc1 (stereo partly drawn) [Compound 74-2, N-((2S)-3-(3-amino-8-azabicyclo[3.2.1]octan-8-yl)-1-(4-bromophenyl)-1,1-difluoro-3-oxopropan-2-yl)-1-(cyclopentylmethyl)-1H-indazole-5-sulfonamide]	30 to 100 µM
CCCCOc1cc(C(F)(F)[C@H](NS(=O)(=O)c2ccc(OCC3CCCCC3)cc2)C(=O)N2CCC(N)CC2)ccc1Cl [Compound 127-1, (R)—N-(3-(4-aminopiperidin-1-yl)-1-(3-butoxy-4-chlorophenyl)-1,1-difluoro-3-oxopropan-2-yl)-4-(cyclohexylmethoxy)benzenesulfonamide]	< 1 µM
CN([C@@H](C(=O)N1C2CCC1CC(N)C2)C(F)(F)c1ccc(Br)cc1)S(=O)(=O)c1ccc2cc(OC3CCCCC3)ccc2c1 (stereo partly drawn) [Compound 37-2, N-((2S)-3-(3-amino-8-azabicyclo[3.2.1]octan-8-yl)-1-(4-bromophenyl)-1,1-difluoro-3-oxopropan-2-yl)-6-(cyclohexyloxy)-N-methylnaphthalene-2-sulfonamide trifluoroacetate]	30 to 100 µM
NC1CCN(C(=O)[C@H](NS(=O)(=O)c2ccc3cc(OC4CCCC4)ccc3c2)C(F)(F)c2ccc(Br)cc2)CC1 [Compound 32-2, (S)—N-(3-(4-aminopiperidin-1-yl)-1-(4-bromophenyl)-1,1-difluoro-3-oxopropan-2-yl)-6-(cyclopentyloxy)naphthalene-2-sulfonamide trifluoroacetate]	10 to 30 µM
CCCCOc1ccc(C(F)(F)[C@H](C(=O)N2CCC(N)CC2)N(C)S(=O)(=O)c2ccc3cc(OC4CCCC4)ccc3c2)cc1 [Compound 53-2, (S)—N-(3-(4-aminopiperidin-1-yl)-1-(4-butoxyphenyl)-1,1-difluoro-3-oxopropan-2-yl)-6-(cyclopentyloxy)-N-methylnaphthalene-2-sulfonamide]	10 to 30 µM
NC1CC2CCC(C1)N2C(=O)[C@@H](NS(=O)(=O)c1ccc2cc(OC3CCCC3)ccc2c1)C(F)(F)c1ccc(-c2ccc(Cl)s2)cc1 (stereo partly drawn) [Compound 101-1, N-((2R)-3-(3-amino-8-azabicyclo[3.2.1]octan-8-yl)-1-(4-(5-chlorothiophen-2-yl)phenyl)-1,1-difluoro-3-oxopropan-2-yl)-6-(cyclopentyloxy)naphthalene-2-sulfonamide]	< 1 µM
NC1CC2CCC(C1)N2C(=O)[C@H](NS(=O)(=O)c1ccc2c(cnn2CC2CCCC2)c1)C(F)(F)c1ccc(Cl)cc1 (stereo partly drawn) [Compound 88-2, N-((2S)-3-(3-amino-8-azabicyclo[3.2.1]octan-8-yl)-1-(4-chlorophenyl)-1,1-difluoro-3-oxopropan-2-yl)-1-(cyclopentylmethyl)-1H-indazole-5-sulfonamide]	30 to 100 µM
NC1CC2CCC(C1)N2C(=O)[C@@H](NS(=O)(=O)c1ccc2cc(OC3CCCC3)ccc2c1)C(F)(F)c1ccc(-c2ccccc2)cc1 (stereo partly drawn) [Compound 36-1, N-((2R)-1-([1,1′-biphenyl]-4-yl)-3-(3-amino-8-azabicyclo[3.2.1]octan-8-yl)-1,1-difluoro-3-oxopropan-2-yl)-6-(cyclopentyloxy)naphthalene-2-sulfonamide trifluoroacetate]	< 1 µM
NC1CCN(C(=O)[C@H](NS(=O)(=O)c2ccc(OCC3CCCCC3)cc2)C(F)(F)c2cccc(Oc3ccccc3)c2)CC1 [Compound 109-2, (S)—N-(3-(4-aminopiperidin-1-yl)-1,1-difluoro-3-oxo-1-(3-phenoxyphenyl)propan-2-yl)-4-(cyclohexylmethoxy) benzenesulfonamide trifluoroacetate]	1 to 10 µM
NC1CC2CCC(C1)N2C(=O)[C@H](NS(=O)(=O)c1ccc(OCC2CCCCC2)cc1)C(F)(F)c1ccc(Oc2ccccc2)cc1 (stereo partly drawn) [Compound 84-2, N-((2S)-3-(3-amino-8-azabicyclo[3.2.1]octan-8-yl)-1,1-difluoro-3-oxo-1-(4-phenoxyphenyl)propan-2-yl)-4-(cyclohexylmethoxy) benzenesulfonamide]	10 to 30 µM
N[C@H]1CCN(C(=O)[C@@H](NS(=O)(=O)c2ccc3cc(OC4CCCC4)ccc3c2)C(F)(F)c2ccc(Br)cc2)C1 [Compound 140-1, N—((R)-3-((S)-3-aminopyrrolidin-1-yl)-1-(4-bromophenyl)-1,1-difluoro-3-oxopropan-2-yl)-6-(cyclopentyloxy)naphthalene-2-sulfonamide]	1 to 10 µM
CC(C)N([C@@H](C(=O)N1C2CCC1CC(N)C2)C(F)(F)c1ccc(Br)cc1)S(=O)(=O)c1ccc2cc(OC3CCCC3)ccc2c1 (stereo partly drawn) [Compound 76-2, N-((2S)-3-(3-amino-8-azabicyclo[3.2.1]octan-8-yl)-1-(4-bromophenyl)-1,1-difluoro-3-oxopropan-2-yl)-6-(cyclopentyloxy)-N-isopropylnaphthalene-2-sulfonamide]	30 to 100 µM
N[C@H]1CCCN(C(=O)[C@@H](NS(=O)(=O)c2ccc3cc(OC4CCCC4)ccc3c2)C(F)(F)c2ccc(Br)cc2)C1 [Compound 132-1, N—((R)-3-((S)-3-aminopiperidin-1-yl)-1-(4-bromophenyl)-1,1-difluoro-3-oxopropan-2-yl)-6-(cyclopentyloxy)naphthalene-2-sulfonamide trifluoroacetate]	1 to 10 µM
CCCCOc1ccc(C(F)(F)[C@@H](C(=O)N2CCC(N)CC2)N(C)S(=O)(=O)c2ccc(OCC3CCCCC3)cc2)cc1 [Compound 58-1, (R)—N-(3-(4-aminopiperidin-1-yl)-1-(4-butoxyphenyl)-1,1-difluoro-3-oxopropan-2-yl)-4-(cyclohexylmethoxy)-N-methylbenzenesulfonamide]	1 to 10 µM
CN([C@H](C(=O)N1CCC(N)CC1)C(F)(F)c1ccc(Oc2ccccc2)cc1)S(=O)(=O)c1ccc(OCC2CCCCC2)cc1 [Compound 64-1, (R)—N-(3-(4-aminopiperidin-1-yl)-1,1-difluoro-3-oxo-1-(4-phenoxyphenyl)propan-2-yl)-4-(cyclohexylmethoxy)-N-methylbenzenesulfonamide]	1 to 10 µM
